Data: patent US20210205196A1, “PRESERVED COMPOSITIONS” (Conopco, Inc., d/b/a UNILEVER, priority 2018, published 2021)

Tests used:
[1] = tested on: Gram Negative non-fermenting bacteria: Pseudomonas aeruginosa, Burkholderia cepacia, Strenotrophomonas sp; assay: Modified Ph. Eur. 5.1.3 microbial challenge test in shampoo, Pool 1; type: cell-based
[2] = tested on: Gram Negative fermenting bacteria: Enterobacter cloacae, Klebsiella sp; assay: Modified Ph. Eur. 5.1.3 microbial challenge test in shampoo, Pool 2; type: cell-based
[3] = 0.5% (w/w) acid in shampoo base, pH 5, 7 days
[4] = 0.5% (w/w) acid in shampoo base, pH 5, 14 days (reinoculated at 7 days)
[5] = 0.5% (w/w) acid in shampoo base, pH 5, 21 days (reinoculated at 7 and 14 days)
[6] = 0.5% (w/w) acid in shampoo base, pH 5, 28 days (reinoculated at 7 and 14 days)
[7] = 1.0% (w/w) acid in shampoo base, pH 5, 7 days
[8] = 1.0% (w/w) acid in shampoo base, pH 5, 14 days (reinoculated at 7 days)
[9] = 1.0% (w/w) acid in shampoo base, pH 5, 21 days (reinoculated at 7 and 14 days)
[10] = 1.0% (w/w) acid in shampoo base, pH 5, 28 days (reinoculated at 7 and 14 days)

Row | Structure (SMILES) | Microbial Log reduction [1, 3] | Microbial Log reduction [1, 4] | Microbial Log reduction [1, 5] | Microbial Log reduction [1, 6] | Microbial Log reduction [1, 7] | Microbial Log reduction [1, 8] | Microbial Log reduction [1, 9] | Microbial Log reduction [1, 10] | Microbial Log reduction [2, 3] | Microbial Log reduction [2, 4] | Microbial Log reduction [2, 5] | Microbial Log reduction [2, 6] | Microbial Log reduction [2, 7] | Microbial Log reduction [2, 8] | Microbial Log reduction [2, 9] | Microbial Log reduction [2, 10]
1 | CC(O)C(=O)O (stereo not drawn) [Lactic acid, lactic acid] | >5.61 log | >5.56 log | >5.74 log | >5.74 log | >5.61 log | >5.56 log | >5.74 log | >5.74 log | 3.93 log | >5.69 log | >5.80 log | >5.80 log | >5.88 log | >5.69 log | >5.80 log | >5.80 log
2 | C=C(CC(=O)O)C(=O)O [Itaconic acid] | >5.68 log | >5.56 log | >5.74 log | >5.74 log | >5.61 log | >5.56 log | >5.74 log | >5.74 log | >5.88 log | >5.69 log | >5.80 log | >5.80 log | >5.88 log | >5.69 log | >5.80 log | >5.80 log
3 | O=C(O)CC(O)(CC(=O)O)C(=O)O [Citric acid, citric acid] | >5.61 log | 3.84 log | >5.74 log | >5.74 log | >5.61 log | >5.56 log | >5.74 log | >5.74 log | 4.88 log | >5.69 log | >5.80 log | >5.80 log | 4.97 log | >5.69 log | >5.80 log | >5.80 log
